The supplement of paper PMC11208160

Assay: recombinant UMI read abundance after kanamycin selection (control-corrected) (log10(CPM+1)); higher = more efficient recombination; extreme values may be limits of the assay; sequences stand for … in AGTGCAGAGAAAATCGGCCAGTTTTCTCTGCCTGCAGTCCGCATGCCGTGGGACCCCTTGGGTTCTAACCTGTTGCCTAGATTTATGCAGCGGACTGCCTTTCTCCCAAAGTGATAAACCGG…AGGTTGGTTTCACT; site = the 11-nt donor
Procedure, shortened: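 Pooled Escherichia coli screen of donor and donor-binding-loop pairs for the IS621 bridge recombinase. Each pair sits with a 12-nt UMI on a plasmid carrying a promoterless kanamycin gene. The library was co-electroporated with a target plasmid encoding a fixed target and T7-inducible recombinase, then plated with IPTG (0.07 mM) plus kanamycin, or unselected, each in two replicates. Recombinant UMIs were PCR-amplified across the donor–target junction and sequenced. Counts became CPM, averaged over replicates, scaled by control-derived factors and reported as log10(CPM+1).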
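Further: IS621 bridge recombinase in Escherichia coli cells against a fixed T5 target plasmid.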

| Sequence | recombinant UMI read abundance (log10) |
| --- | --- |
| GTGCAGGCATGGACCGGTTTTCCCGGTAATCCGTATTTGTG (site GTGGAGGCTCA) | 0.393 |
| GTGCAGGCATGGACCGGTTTTCCCGGTAATCCGTATTTGTG (site GTGTAGGCTCA) | 0.475 |
| GTGCATACATGGACCGGTTTTCCCGGTAATCCGTATTTGGT (site GTGCATACTAC) | 1.51 |
| GTGCATACATGGACCGGTTTTCCCGGTAATCCGTATTTGGT (site GTGCATCCTAC) | 0.00833 |
| GTGCATACATGGACCGGTTTTCCCGGTAATCCGTATTTGGT (site GTGCATGCTAC) | 0.555 |
| GTGCATACATGGACCGGTTTTCCCGGTAATCCGTATTTGGT (site GTGCATTCTAC) | 0.00888 |
| GTGCATGCATGGACCGGTTTTCCCGGTAATCCGTATTTGCT (site GTGCATGCTAA) | 0.00274 |
| GTGCATGCATGGACCGGTTTTCCCGGTAATCCGTATTTGCT (site GTGCATGCTAC) | 0 |
| GTGCATGCATGGACCGGTTTTCCCGGTAATCCGTATTTGCT (site GTGCATGCTAG) | 2.86 |
| GTGCATGCATGGACCGGTTTTCCCGGTAATCCGTATTTGCT (site GTGCATGCTAT) | 0.999 |
| GTGCCGACATGGACCGGTTTTCCCGGTAATCCGTATTTGAC (site GTGCCGACTGT) | 2.4 |
| GTGCGTGCATGGACCGGTTTTCCCGGTAATCCGTATTTGGT (site GTGCATGCTAC) | 0.26 |
| GTGCGTGCATGGACCGGTTTTCCCGGTAATCCGTATTTGGT (site GTGCCTGCTAC) | 0.00736 |
| GTGCGTGCATGGACCGGTTTTCCCGGTAATCCGTATTTGGT (site GTGCGTGCTAC) | 0.346 |
| GTGCGTGCATGGACCGGTTTTCCCGGTAATCCGTATTTGGT (site GTGCTTGCTAC) | 0.00274 |
| GTGCTCCCATGGACCGGTTTTCCCGGTAATCCGTATTTGAC (site GTGCTCCCTGT) | 1.9 |
| GTGGACGCATGGACCGGTTTTCCCGGTAATCCGTATTTGAG (site GTGGACGCTCT) | 1.56 |
| GTGGACGCATGGACCGGTTTTCCCGGTAATCCGTATTTGTG (site GTGGAAGCTCA) | 1.41 |
| GTGGACGCATGGACCGGTTTTCCCGGTAATCCGTATTTGTG (site GTGGACGCTCA) | 1.56 |
| GTGGACGCATGGACCGGTTTTCCCGGTAATCCGTATTTGTG (site GTGGAGGCTCA) | 0.0785 |
| GTGGACGCATGGACCGGTTTTCCCGGTAATCCGTATTTGTG (site GTGGATGCTCA) | 0.653 |
| GTGGAGACATGGACCGGTTTTCCCGGTAATCCGTATTTGTG (site GTGGAGACTCA) | 1.59 |
| GTGGAGACATGGACCGGTTTTCCCGGTAATCCGTATTTGTG (site GTGGAGCCTCA) | 0.0116 |
| GTGGAGACATGGACCGGTTTTCCCGGTAATCCGTATTTGTG (site GTGGAGGCTCA) | 1.4 |
| GTGGAGACATGGACCGGTTTTCCCGGTAATCCGTATTTGTG (site GTGGAGTCTCA) | 1.99 |

| Sequence | recombinant UMI read abundance (log10) |
| --- | --- |
| GTGGAGCCATGGACCGGTTTTCCCGGTAATCCGTATTTGTG (site GTGGAGACTCA) | 0.00935 |
| GTGGAGCCATGGACCGGTTTTCCCGGTAATCCGTATTTGTG (site GTGGAGCCTCA) | 0.484 |
| GTGGAGCCATGGACCGGTTTTCCCGGTAATCCGTATTTGTG (site GTGGAGGCTCA) | 0.00706 |
| GTGGAGCCATGGACCGGTTTTCCCGGTAATCCGTATTTGTG (site GTGGAGTCTCA) | 1.74 |
| GTGGAGGCATGGACCGGTTTTCCCGGTAATCCGTATTTGAG (site GTGGAGGCTCA) | 0.00393 |
| GTGGAGGCATGGACCGGTTTTCCCGGTAATCCGTATTTGAG (site GTGGAGGCTCC) | 0.297 |
| GTGGAGGCATGGACCGGTTTTCCCGGTAATCCGTATTTGAG (site GTGGAGGCTCG) | 0.681 |
| GTGGAGGCATGGACCGGTTTTCCCGGTAATCCGTATTTGAG (site GTGGAGGCTCT) | 1.57 |
| GTGGAGGCATGGACCGGTTTTCCCGGTAATCCGTATTTGGG (site GTGGAGGCTCA) | 0.238 |
| GTGGAGGCATGGACCGGTTTTCCCGGTAATCCGTATTTGGG (site GTGGAGGCTCC) | 0.954 |
| GTGGAGGCATGGACCGGTTTTCCCGGTAATCCGTATTTGGG (site GTGGAGGCTCG) | 0.597 |
| GTGGAGGCATGGACCGGTTTTCCCGGTAATCCGTATTTGGG (site GTGGAGGCTCT) | 0.567 |
| GTGGAGGCATGGACCGGTTTTCCCGGTAATCCGTATTTGTA (site GTGGAGGCTAA) | 0.557 |
| GTGGAGGCATGGACCGGTTTTCCCGGTAATCCGTATTTGTA (site GTGGAGGCTCA) | 0.682 |
| GTGGAGGCATGGACCGGTTTTCCCGGTAATCCGTATTTGTA (site GTGGAGGCTGA) | 0.943 |
| GTGGAGGCATGGACCGGTTTTCCCGGTAATCCGTATTTGTA (site GTGGAGGCTTA) | 2.86 |
| GTGGATACATGGACCGGTTTTCCCGGTAATCCGTATTTGCA (site GTGGATACTTG) | 1.84 |
| GTGGCCTCATGGACCGGTTTTCCCGGTAATCCGTATTTGGA (site GTGGCCTCTTC) | 1.43 |
| GTGGCTGCATGGACCGGTTTTCCCGGTAATCCGTATTTGCC (site GTGGCTGCTGG) | 2.44 |
| GTGGGCGCATGGACCGGTTTTCCCGGTAATCCGTATTTGAC (site GTGGGCGCTGT) | 2.43 |
| GTGGGTACATGGACCGGTTTTCCCGGTAATCCGTATTTGTG (site GTGGGTACTCA) | 1.46 |
| GTGGGTTCATGGACCGGTTTTCCCGGTAATCCGTATTTGGC (site GTGGGTTCTGC) | 2.19 |
| GTGGTCGCATGGACCGGTTTTCCCGGTAATCCGTATTTGCG (site GTAGTCGCTCG) | 0.519 |
| GTGGTCGCATGGACCGGTTTTCCCGGTAATCCGTATTTGCG (site GTCGTCGCTCG) | 0.0116 |
| GTGGTCGCATGGACCGGTTTTCCCGGTAATCCGTATTTGCG (site GTGGTCGCTCG) | 1.15 |

| Sequence | recombinant UMI read abundance (log10) |
| --- | --- |
| GTGGTCGCATGGACCGGTTTTCCCGGTAATCCGTATTTGCG (site GTTGTCGCTCG) | 0.00973 |
| GTGTAAACATGGACCGGTTTTCCCGGTAATCCGTATTTGCT (site GTGTAAACTAG) | 2.89 |
| GTGTATACATGGACCGGTTTTCCCGGTAATCCGTATTTGCT (site GTGTATACTAG) | 2.44 |
| GTGTCCCCATGGACCGGTTTTCCCGGTAATCCGTATTTGGA (site GTGTCCCCTTC) | 0.0113 |
| GTGTGCACATGGACCGGTTTTCCCGGTAATCCGTATTTGTA (site GTATGCACTTA) | 1.48 |
| GTGTGCACATGGACCGGTTTTCCCGGTAATCCGTATTTGTA (site GTCTGCACTTA) | 0.0255 |
| GTGTGCACATGGACCGGTTTTCCCGGTAATCCGTATTTGTA (site GTGTGCACTTA) | 2.15 |
| GTGTGCACATGGACCGGTTTTCCCGGTAATCCGTATTTGTA (site GTTTGCACTTA) | 0.00854 |
| GTGTTCTCATGGACCGGTTTTCCCGGTAATCCGTATTTGAA (site GTGTTCTCTTT) | 2.52 |
| GTTAAAACATGGACCGGTTTTCCCGGTAATCCGTATTTGGC (site GTTAAAACTGC) | 0 |
| GTTAAAACATGGACCGGTTTTCCCGGTAATCCGTATTTGGC (site GTTACAACTGC) | 0 |
| GTTAAAACATGGACCGGTTTTCCCGGTAATCCGTATTTGGC (site GTTAGAACTGC) | 0.02 |
| GTTAAAACATGGACCGGTTTTCCCGGTAATCCGTATTTGGC (site GTTATAACTGC) | 0 |
| GTTAAATCATGGACCGGTTTTCCCGGTAATCCGTATTTGAA (site GTTAAATCTTT) | 1.62 |
| GTTAAGGCATGGACCGGTTTTCCCGGTAATCCGTATTTGTC (site GTTAAGGCTGA) | 2.82 |
| GTTACACCATGGACCGGTTTTCCCGGTAATCCGTATTTGAA (site GTTACACCTTT) | 0.0186 |
| GTTAGAACATGGACCGGTTTTCCCGGTAATCCGTATTTGCC (site GTTAGAACTGA) | 0 |
| GTTAGAACATGGACCGGTTTTCCCGGTAATCCGTATTTGCC (site GTTAGAACTGC) | 0 |
| GTTAGAACATGGACCGGTTTTCCCGGTAATCCGTATTTGCC (site GTTAGAACTGG) | 0 |
| GTTAGAACATGGACCGGTTTTCCCGGTAATCCGTATTTGCC (site GTTAGAACTGT) | 0 |
| GTTAGAACATGGACCGGTTTTCCCGGTAATCCGTATTTGGG (site GTTAGAACTAC) | 0 |
| GTTAGAACATGGACCGGTTTTCCCGGTAATCCGTATTTGGG (site GTTAGAACTCC) | 0.172 |
| GTTAGAACATGGACCGGTTTTCCCGGTAATCCGTATTTGGG (site GTTAGAACTGC) | 0 |
| GTTAGAACATGGACCGGTTTTCCCGGTAATCCGTATTTGGG (site GTTAGAACTTC) | 0.00779 |
| GTTAGAACATGGACCGGTTTTCCCGGTAATCCGTATTTGTC (site GTTAGAACTGA) | 1.52 |
